Data as given in US8604060B2, “Use of antagonists of the CBI receptor for the manufacture of a composition useful for the treatment of hepatic diseases” (INSERM, priority 2004, dated 2013).

How the values were obtained:
CD1 mice = experiment: Mortality induced by chronic carbon tetrachloride intoxication (experimental model of liver fibrosis) in mice; format: in vivo; conditions: 10 mg/kg daily intraperitoneal
Source text: FIG. 4: Plot showing the effect of SR141716 or its vehicle on the mortality induced by carbon tetrachloride in mice. The survival rate of mice treated with CC14 either with SR141716 (dotted lines) or with no treatment (solid lines showing the administration of vehicle only without CB1 antagonist) is shown against time in days. Time of administration of CC14 is shown by the arrow.
The antifibrogenic potential of the CB1 antagonist SR 141716 in an experimental model of liver fibrosis, induced by chronic intoxication with carbon tetrachloride was evaluated.
SR 141716 (10 mg/kg body weight) was dissolved freshly before use, in a vehicle solution (2 drops of Tween 80 in 10 ml of PBS containing 10% dimethylsulfoxide and 5% ethanol) and sonicated.
CD1 mice were obtained from Janvier (France). All experiments were performed using accepted ethical guidelines. 36 males, aged 10-12 weeks, were used and animals were divided into the following groups: vehicle-treated, olive oil group (n=3); vehicle-treated, CC14 group (n=14); SR 141716-treated olive oil group (n=3); SR 141716A-treated, CC14 group (n=16). Animals were housed in temperature and humidity controlled rooms, kept on a 12-h light/dark cycle and provided unrestricted amounts of food and water, unless otherwise specified. […]

[1] = tested on: murine myofibroblasts isolated from wild type mice; experiment: DNA synthesis ([3H] thymidine incorporation) in murine hepatic myofibroblasts from wild type mice stimulated with PDGF-BB; format: cell-based, mouse; conditions: 20 ng/ml PDGF-BB, 30 h
Experimental: (§1) FIG. 3: Plots showing the effect of increasing amounts of CB1 antagonist SR141716 on DNA synthesis in human hepatic myofibroblast (panel A) and on wild type mice (shown as WT) and CB1 deficient mice (shown as CB1KO) (panel B). The DNA synthesis is expressed as a percentage of DNA synthesis in cells treated with the vehicle of SR 141716 and plotted against increasing concentrations of SR 141716 in nM. Human hepatic myofibroblast cells were stimulated for 30 h with varying concentrations of the CB1 receptor antagonist SR 141716, in the presence of 20 ng/ml of PDGF-BB [^3H] […] Error bars are shown on the plot. […] Thymidine incorporation into DNA was measured as mean±SEM, from 3-6 experiments obtained from cells isolated from livers of 3 WT and 3 CB1 -/- mice and are expressed as percent of control. […]
(§2) DNA synthesis was measured in triplicate wells by incorporation of [3H] thymidine, as previously described (Tao, J., et al., J Biol Chem, 1999. 274(34): p. 23761-23769). […]
(§3) The cell culture was performed as described in example 1 herein. Cell culture of both human and mouse hepatic myofibroblasts were exposed to increasing doses of CB1 receptor antagonist SR141716 and the DNA synthesis of hepatic myofibroblasts was measured.

[2] = tested on: human hepatic myofibroblasts; experiment: DNA synthesis ([3H] thymidine incorporation) in human hepatic myofibroblasts stimulated with PDGF-BB; format: cell-based; conditions: 20 ng/ml PDGF-BB, 30 h, read-out: half maximal inhibition of DNA synthesis elicited by PDGF-BB
Experimental: as §1, §2, §3

[3] = tested on: CB1-/- cells (mouse hepatic myofibroblasts); experiment: DNA synthesis ([3H] thymidine incorporation) in hepatic myofibroblasts from CB1-/- mice stimulated with PDGF-BB; format: cell-based; conditions: 20 ng/ml PDGF-BB, 30 h
Experimental: as §1, §2, §3

SMILES: Cc1c(C(=O)NN2CCCCC2)nn(-c2ccc(Cl)cc2Cl)c1-c1ccc(Cl)cc1 [SR141716, N-piperidino-5-(4-chlorophenyl)-1-(2,4-dichlorophenyl)-4-methylpyrazole-3-carboxamide]
- survival rate at one month (CD1 mice; CC14 0.5 ml/kg IP twice a week for one month, started 7 days before CC14): 83%
- deaths in sham animals (CD1 mice; olive oil (sham) mice): no deaths
- DNA synthesis elicited by PDGF-BB [1]: inhibited
- IC50 [2]: 300 to 400 nM
- proliferation (DNA synthesis elicited by PDGF-BB) [3]: only marginally affected
